The record followed here is PMC6270530, “Structural Characterization of de Novo Designed L5K5W Model Peptide Isomers with Potent Antimicrobial and Varied Hemolytic Activities” (Molecules, 2013).

No end group written: not given here.

Series [1] relates to 5 Gram-negative strains tested. Format: cell-based, Gram-negative bacteria. To be noted: against 5 Gram-negative strains tested. As for the experimental part:
(§1) Table 1 summarizes the MIC values of our model peptide isomers against various bacterial species, including four Gram-positive, five Gram-negative and a multi-drug resistant strain. […] In addition, all of the peptides were fairly active (MICs ≤ 16 μg/mL) against the MRSA-TK784 strain, which is not susceptible to β-lactam antibiotics and protein synthesis inhibitors and moderately resistant to vancomycin [21, 42].
(§2) The antimicrobial activity of each peptide was determined against four strains of Gram-positive bacteria (Bacillus subtilis ATCC 6633, Staphylococcus aureus ATCC 6538p, Staphylococcus epidermis ATCC 12228, and Micrococcus luteus ATCC 10240) and five strains of Gram-negative bacteria (Escherichia coli ATCC 25922, Shigella dysentariae ATCC 9752, Salmonella typhomurium ATCC 14028, Klebsiella pneumoniae ATCC 10031, and Pseudomonas aeruginosa ATCC 27853). In addition, a methicillin-resistant Staphylococcus aureus strain, MRSA-TK784 [21, 42], was employed as a multi-drug resistant bacterium. Antimicrobial susceptibility was measured as the minimal inhibitory concentration (MIC), which was determined by the standard broth microdilution method, as described previously. […] The tests were performed in triplicate, and the MIC values that were reproduced twice or three times in the three independent measurements were recorded.

Series [2] concerns Shigella dysentariae ATCC 9752. It is filed as cell-based. The following applies: broth microdilution, 1–128 μg/mL two-fold dilutions; triplicate, value reproduced twice or three times. As for the experimental part: as §2
For orientation: Dilution methods test growth across graded concentrations, often in twofold steps.

The test system of series [3] is 4 Gram-positive strains tested. Format: cell-based, Gram-positive bacteria. To be noted: against 4 Gram-positive strains tested. How it is done:
as §1, §2

In series [4] the test system is all of the 9 strains tested. It is filed as cell-based, Gram-positive and Gram-negative bacteria. To be noted: against all of the 9 strains tested. How it is done:
as §1, §2

The test system of series [5] is MRSA-TK784. It is filed as cell-based, methicillin-resistant Staphylococcus aureus. The following applies: Methicillin-Resistant S. aureus; broth microdilution, 1–128 μg/mL two-fold dilutions; triplicate. How it is done:
as §2

Series [6] concerns human red blood cells. It is filed as cell-based. How it is done: The hemolytic assay was performed as described previously. In brief, suspensions of human red blood cells (10% v/v in PBS) were treated for 1 h with various concentrations (1–128 μg/mL, two-fold serial dilutions) of the peptides. The absorbance of the supernatant was then measured at 550 nm. The relative value to 100% hemolysis of human red blood cells treated with 0.2% Triton X-100 was defined as the percentage of hemolysis. The tests were performed using triplicate samples, and the average values of the three independent measurements were recorded. The minimal hemolytic concentration (MHC) value was determined as the lowest peptide concentration that produces more than 5% hemolysis.

As to LLKKLLKWLKK-NH2 [W8], the “GM (geometric mean of MICs), Gram (−)” value in series [1] stood at 4.6 µg/mL. Further, in series [2], the “Minimal inhibitory concentration, S. dysentariae” value amounted to 4 µg/mL. For the same substance, in series [3], the “GM (geometric mean of MICs), Gram (+)” value came to 3.4 µg/mL. Moreover, the “GM (geometric mean of MICs), Gram (+,−)” value in series [4] is 4.0 µg/mL.
On to KLLKWLKKLLK-NH2 [W5], for which, in series [1], the “GM (geometric mean of MICs), Gram (−)” value turned out to be 2.6 µg/mL. The “Minimal inhibitory concentration, S. dysentariae” value in series [2] was determined as 2 µg/mL. Besides, in series [3], the “GM (geometric mean of MICs), Gram (+)” value stood at 2.0 µg/mL. Also, the “GM (geometric mean of MICs), Gram (+,−)” value in series [4] turned out to be 2.3 µg/mL.
With LKKLLKKLLKW-NH2 [W11], the “Minimal inhibitory concentration, MRSA-TK784” value in series [5] amounted to 16 µg/mL. For the same substance, the “GM (geometric mean of MICs), Gram (−)” value in series [1] was 3.5 µg/mL. For the same substance, the “Minimal inhibitory concentration, S. dysentariae” value in series [2] amounted to 2 µg/mL. For the same substance, in series [3], the “GM (geometric mean of MICs), Gram (+)” value came to 2.4 µg/mL. Besides, the “GM (geometric mean of MICs), Gram (+,−)” value in series [4] came out at 2.9 µg/mL.
As for KKLLKKLLKWL-NH2 [W10], the “GM (geometric mean of MICs), Gram (−)” value in series [1] was 1.7 µg/mL. The “Minimal inhibitory concentration, S. dysentariae” value in series [2] was 1 µg/mL. In addition, the “GM (geometric mean of MICs), Gram (+)” value in series [3] stood at 1.2 µg/mL. Further, in series [4], the “GM (geometric mean of MICs), Gram (+,−)” value stood at 1.5 µg/mL.
The corresponding values for LKKLLKWLKKL-NH2 [W7] are 3.0 µg/mL, 2 µg/mL, 2.4 µg/mL and 2.7 µg/mL.
The corresponding values for KLLKKLLKWLK-NH2 [W9] are 2.3 µg/mL, 2 µg/mL, 2.4 µg/mL and 2.3 µg/mL.
The corresponding values for KWLKKLLKKLL-NH2 [W2] are 2.3 µg/mL, 1 µg/mL, 2.4 µg/mL and 2.3 µg/mL.
In the case of KKLLKWLKKLL-NH2 [W6], the “GM (geometric mean of MICs), Gram (−)” value in series [1] turned out to be 3.5 µg/mL. Moreover, in series [2], the “Minimal inhibitory concentration, S. dysentariae” value amounted to 2 µg/mL. For the same substance, the “hemolytic activity (in words)” value in series [6] is reported as “somewhat hemolytic”. Further, the “GM (geometric mean of MICs), Gram (+,−)” value in series [4] was determined as 3.2 µg/mL.
With WLKKLLKKLLK-NH2 [W1], the “Minimal inhibitory concentration, MRSA-TK784” value in series [5] stood at 8 µg/mL. For the same substance, the “GM (geometric mean of MICs), Gram (−)” value in series [1] came to 3.0 µg/mL. Also, in series [2], the “Minimal inhibitory concentration, S. dysentariae” value amounted to 2 µg/mL. Moreover, the “GM (geometric mean of MICs), Gram (+)” value in series [3] was 2.4 µg/mL. The “GM (geometric mean of MICs), Gram (+,−)” value in series [4] worked out at 2.7 µg/mL.
On to LLKWLKKLLKK-NH2 [W4], for which the “GM (geometric mean of MICs), Gram (−)” value in series [1] was 3.5 µg/mL. Besides, in series [2], the “Minimal inhibitory concentration, S. dysentariae” value is 2 µg/mL. Moreover, the “GM (geometric mean of MICs), Gram (+)” value in series [3] stood at 2.4 µg/mL. Moreover, the “GM (geometric mean of MICs), Gram (+,−)” value in series [4] is 2.9 µg/mL.
As to LKWLKKLLKKL-NH2 [W3], in series [1], the “GM (geometric mean of MICs), Gram (−)” value is 3.5 µg/mL. In addition, in series [2], the “Minimal inhibitory concentration, S. dysentariae” value is 2 µg/mL. The “GM (geometric mean of MICs), Gram (+,−)” value in series [4] came to 3.2 µg/mL.
